{
  "source": "patent US20200276312A1",
  "about": "“Elimination of chronic pain by chronic activation of adenosine receptor type A1 in peripheral sensory neurons” (University of Rochester, priority 2019, published 2020)",
  "key": {"[1]": {"test_system": "mice with MIA-induced inflammatory chronic pain", "experiment": "von Frey mechanical sensitivity in MIA-induced inflammatory chronic pain", "assay_type": "in vivo, mouse", "details": "for acupuncture-induced acute analgesia: agent applied at ST36 prior to each acupuncture; for acupuncture-induced RHyp (resolution of hypersensitivity): agent given with repetitive acupuncture (DPCPX, topical lidocaine at ST36; caffeine oral 0.1 mg/ml)", "source_text": "To assess if repetitive application of acupuncture produces an extension of transient analgesia or RHyp, inflammatory chronic pain was induced by administering monosodium iodoacetate (MIA) in the hind limb knee joints of mice (FIG. 1A and FIG. 5A), in which spreading of hypersensitivity (hyperalgesia and allodynia) in the limb develops in 3 weeks and never wears off thereafter (Combe et al., 2004, Neurosci Lett 370:236-240; Ogbonna et al., 2015, Age (Dordr) 37:9792; Rahman & Dickenson, 2015, Neuroscience 295:103-116). […] Manual acupuncture, given twice a week at ST36, induced acute analgesia in weeks 2 and 3 as well. […] This delayed-onset reduction of hypersensitivity was not a result of loss of the knee arthritis pathology, as indicated by the synovial membrane hypertrophy (FIG. 5B). […] In order to identify the cell type whose A1R mediates acute analgesia and RHyp, transgenic mice with conditional deletion of A1R selectively in sensory neurons were generated (Akopian et al, 1996, Nature 379:257-262; Stirling et al., 2005, Pain 113:27-36). (FIG. 5C). […] Both acute analgesia and RHyp were absent with repetitive administration of vehicle (FIG. 5D). […] Combined, chronic activation of A1R in sensory neurons resolves sensitization state, which can be induced by repetitive acupuncture.\nMechanical sensitivity was measured using a slightly modified Semmes-Weinstein von Frey Aesthesiometer touch test. Before beginning the measurement session, animals were acclimated to the acrylic chamber (IITC Life Science, Woodland Hills, Calif.) for 60 minutes per day for two days. Baseline mechanosensitivity was measured at least twice on different days to validate the stable, low mechanosensitivity in all mice prior to pain induction administered on the day of the second measurement. The average of the two measurements was recorded as the baseline sensitivity value. Pain-induced hyper-mechanosensitivity was evaluated three weeks after the intra-articular administration of monosodium iodoacetate (MIA, Sigma-Aldrich, 60 mg/ml, 5 μl) to a knee joint. Of note, most other inflammatory pain models cannot stably sustain hypersensitivity over months. The evaluation was performed by gently applying a thin filament of 0.04 g force to the hind paw of the animals, and the rapid retraction or tapping of the foot was counted as a positive response. A total of six trials were given to a paw in one measurement session with an interval of at least 5 min between each trial. Positive responses in the all trials were recorded, and the data were represented as the percent of positive responses. Percent change in mechanosensitivity by treatments was obtained by subtracting values of percent responses before acupuncture from that after acupuncture for each animal. […] All behavioral measurements were done at the same time of the day during the 12-hour light cycle.\nFor acupuncture treatment, animals were placed in a restrainer with the hind leg, ipsilateral to the knee inflammation, secured and loosely stretched. An acupuncture needle (0.20 mm; DBC Spring, Lhasa OMS, Weymouth, Mass.) was gently inserted to ST36 Zusanli point (3-4 mm below and 1-2 mm lateral from the midline from the knee) at a depth of 1.5 mm,^40 then slowly rotated for 1 minute every 3-4 minutes for a 20-minute session while the mice were awake. For sham treatment, the acupuncture needle was inserted in the same way, but then untouched for 20 minutes. The animals were immediately transferred back to the chamber and acclimated for at least 15 minutes before the post-treatment mechanosensitivity measurements. In selected experiments, solution of 2-Chloro-N^6-cyclopentyladenosine (CCPA, Sigma-Aldrich, 100 μM, 5 μl) was administered to ST36 at a depth of 1.5 mm instead of acupuncture needle. 8-Cyclopentyl-1,3-dipropylxanthine (DPCPX, Sigma-Aldrich, 100 µM, 5 μl) was administered to ST36 at a depth of 1.5 mm prior to acupuncture needle insertion. […]"}, "[2]": {"experiment": "in vitro release of CCPA from Fmoc-F5-Phe cation hydrogel (HPLC)", "assay_type": "physicochemical", "details": "37° C.", "experimental": "To determine the amount of CCPA released from a 1 mL hydrogel of the Fmoc-F^5-Phe cation (33.7 mM Fmoc-F^5-Phe cation, 114 mM NaCl, 0.5 mM CCPA) as a function of time, 1.5 mL of isotonic water (114 mM NaCl) was slowly added to the top of the gel to avoid disrupting the gel. This bilayer mixture was sealed in a screw top vial and placed in a 37° C. oven. Aliquots (80 μL) were removed 20 min, 40 min, 60 min, 2 h, 3 h, 4 h, 6 h, 30 h, 54 h, and 78 h after the salt water was initially layered over the gel. After removing each aliquot, the salt solution was immediately replaced with an equal volume of salt solution (80 μL, 114 mM NaCl). Aliquots were assessed by injection onto analytical HPLC instrument in order to determine the amount of CCPA that had been released. A Shimadzu 2010A HPLC instrument equipped with a Phenomenex Gemini 5 micron C18 column (250×4.6 mm) with a guard column was used to determine concentration of the CCPA released into the 1.5 mL salt solution by correlation of integrated peak area to a previously constructed CCPA concentration curve. This concentration was converted to mol of CCPA and the diffusion coefficient was determined using Equation 1. […]"}, "sciatic nerve tissue": {"test_system": "sciatic nerve tissue", "experiment": "CCPA permeability into sciatic nerve in vivo", "design": "species or system mouse", "experimental": "For quantification of CCPA permeability, parafilm (7×20 mm) was placed underneath of the exposed sciatic nerve which was then covered with a custom-made enclosure (6.5 mm length plastic tube, 1.5 mm inner diameter with 120° opening) to control the length of nerve exposed to the drugs. The enclosure surrounding the nerve was gently filled with 10 μl of CCPA (5 mM) alone or a mixture of CCPA and an ENT1/2 inhibitor, 6-S-[(4-Nitrophenyl)methyl]-6-thioinosine (NBMPR, Thermo Fisher, 1 mM). After 90 minutes, the nerve was washed with PBS, extracted (6 mm length), and stored at −80° C. Tissues were homogenized in methanol using FastPrep-24 5G with CoolPrep adapter (MP Biomedicals) and incubated for 12-14 hours at −20° C. After centrifuging at 12,000 g for 15 minutes, the supernatants were dried down in CentriVap concentrator and then reconstituted in 50% DMSO. In the pilot studies, it was confirmed that highest recovery rate of CCPA was obtained with homogenization in methanol, compared to that in ethanol or HEPES buffer solution followed by ultrafilteration, and recovery rate was calculated as 95.19%. The concentrations of CCPA in samples were quantified by HPLC."}, "[3]": {"test_system": "mice with CFA-induced acute inflammatory pain", "experiment": "ankle circumference (swelling) in CFA model", "assay_type": "in vivo, mouse", "details": "day five, compared to CFA-induced group that received F5-Phe gel"}, "[4]": {"test_system": "mice with CFA-induced acute inflammatory pain", "experiment": "von Frey mechanical sensitivity in CFA-induced acute inflammatory pain", "assay_type": "in vivo, mouse"}},
  "note": "Entries after “also recorded” stand apart in the source; their conditions may differ.",
  "data": [
    {"smiles": "OC[C@H]1O[C@@H](n2cnc3c(NC4CCCC4)nc(Cl)nc32)[C@H](O)[C@@H]1O", "note": "[CCPA, 2-Chloro-N^6-cyclopentyladenosine]", "values": [
      {"measurement": "response of hypersensitivity (acute analgesia, RHyp)", "setting": "[1]; A1R conditional knockout (A1RcKO) mice, repetitive administration", "value": "unresponsive"},
      {"measurement": "re-emergence of hypersensitivity", "setting": "[1]; WT animals, post-treatment observation period", "value": "never re-emerged"},
      {"measurement": "RHyp", "setting": "[1]; repetitive CCPA solution (100 μM, 5 μl) at ST36 instead of acupuncture", "value": "induced RHyp"},
      {"measurement": "diffusion coefficient of CCPA release", "setting": "[2]; 1 mL gel, 33.7 mM gelator, 500 μM CCPA, 114 mM NaCl, first 200 minutes", "value": "3.15×10^−9 m^2 min^−1"},
      {"measurement": "duration of continuous release from F5-Phe hydrogel", "setting": "[2]; CCPA 500 μM", "value": 15, "unit": "days"},
      {"measurement": "CCPA entry into sciatic nerve", "setting": "sciatic nerve tissue; CCPA 5 mM applied outside the nerve in vivo, 90 minutes", "value": "found inside the sciatic nerve tissue"}
    ]},
    {"smiles": "CCCn1c(=O)c2[nH]c(C3CCCC3)nc2n(CCC)c1=O", "note": "[DPCPX, 8-Cyclopentyl-1,3-dipropylxanthine]", "values": [
      {"measurement": "acupuncture-induced acute analgesia", "setting": "[1]", "value": "inhibited the manifestation"},
      {"measurement": "acupuncture-induced RHyp (resolution of hypersensitivity)", "setting": "[1]", "value": "inhibited the manifestation"}
    ]},
    {"smiles": "O=C(O)Cc1ccccc1Nc1c(Cl)cccc1Cl", "note": "[Dcf, diclofenac]", "values": [
      {"measurement": "ankle circumference", "setting": "[3]", "value": "slightly lower circumferences"},
      {"measurement": "mechanical sensitivity", "setting": "[4]; from 24 h after injection over the final 13 days, 0.1 mg/mL, 10 μL", "value": "~80", "unit": "%"},
      {"measurement": "relative percentage of hind paw sensitivity", "setting": "[4]; within hours of injection, versus gel lacking diclofenac", "value": "decreased significantly"}
    ]},
    {"smiles": "O=[N+]([O-])c1ccc(CSc2ncnc3c2ncn3[C@@H]2O[C@H](CO)[C@@H](O)[C@H]2O)cc1", "note": "[NBMPR, 6-S-[(4-Nitrophenyl)methyl]-6-thioinosine]", "values": [
      {"measurement": "effect on CCPA entry into sciatic nerve", "setting": "sciatic nerve tissue; NBMPR 1 mM mixed with CCPA 5 mM", "value": "reduced the CCPA entry"}
    ]},
    {"smiles": "Cn1c(=O)c2c(ncn2C)n(C)c1=O", "note": "[caffeine]", "values": [
      {"measurement": "acupuncture-induced RHyp (resolution of hypersensitivity)", "setting": "[1]", "value": "abolished"}
    ]},
    {"smiles": "CCCC(=O)Nc1ncnc2c1ncn2[C@@H]1O[C@@H]2COP(=O)(O)O[C@H]2[C@H]1OC(=O)CCC", "note": "[dbcAMP, N^6,O^2-dibutyryladenosine 3,5-cyclic monophosphate]", "values": [
      {"measurement": "delay of onset of RHyp", "setting": "[1]; co-delivered with CCPA by F5-Phe, submuscular at ST36", "value": 3, "unit": "weeks"}
    ]},
    {"smiles": "CCN(CC)CC(=O)Nc1c(C)cccc1C", "note": "[lidocaine]", "values": [
      {"measurement": "acupuncture-induced acute analgesia", "setting": "[1]", "value": "loss of acupuncture-induced acute analgesia"},
      {"measurement": "acupuncture-induced RHyp (resolution of hypersensitivity)", "setting": "[1]", "value": "RHyp was induced"},
      {"measurement": "hind paw sensitivity", "setting": "[1]; topical 5% lidocaine at ST36 without acupuncture", "value": "no changes in hind paw hypersensitivity; also recorded: did not modulate hind paw sensitivity"}
    ]},
    {"smiles": "COc1cccc(C2(O)CCCCC2CN(C)C)c1", "note": "(stereo not drawn) [tramadol]", "values": [
      {"measurement": "acute analgesia and RHyp", "setting": "[1]; repetitive systemic administration", "value": "gradual loss of acute analgesia instead of RHyp"}
    ]}
  ]
}
